Key:
[1] = target: Dual specificity protein kinase CLK1 (Homo sapiens, UniProt P49759); experiment: Affinity On-target Cellular interaction (NanoBRET assay (HEK293T cells)) EUB0000724a CLK1; set-up: mode of action Inhibitor, recommended concentration 1 uM
[2] = target: Histone-lysine N-methyltransferase, H3 lysine-79 specific (Homo sapiens, UniProt Q8TEK3); experiment: Affinity On-target Cellular interaction (Western Blot (reduction of H3K79 dimethylation in A431 cells by DOT1L)) EUB0000216b DOT1L; type: cell-based; set-up: mode of action Inhibitor, recommended concentration 1 uM
[3] = target: Leucine-rich repeat serine/threonine-protein kinase 2 (Homo sapiens, UniProt Q5S007); experiment: Affinity On-target Cellular interaction (Cellular assay (LRRK2 phosphorylation)) EUB0000629a LRRK2; set-up: mode of action Inhibitor, recommended concentration 100 nM
[4] = target: Bromodomain adjacent to zinc finger domain protein 2B (Homo sapiens, UniProt Q9UIF8); experiment: Affinity On-target Cellular interaction (Chemoproteomic competition binding assay (endogenous full-length BAZ2B captured on the GSK8573 affinity matrix from HuT-78 cell lysate) ) EUB0000267b BAZ2B; set-up: mode of action Negative control for GSK2801, recommended concentration 1 uM
[5] = target: Bromodomain adjacent to zinc finger domain protein 2A (Homo sapiens, UniProt Q9UIF9); experiment: Affinity On-target Cellular interaction (Chemoproteomic competition binding assay (endogenous full-length BAZ2A from HuT78 extracts)) EUB0000267b BAZ2A; set-up: mode of action Negative control for GSK2801, recommended concentration 1 uM
[6] = target: Transient receptor potential cation channel subfamily A member 1 (Homo sapiens, UniProt O75762); experiment: Affinity On-target Cellular interaction (Electrophysiological assay (inhibition of AITC (allylthiocyanate, 100 µmol/L)-evoked currents in HEK293F cells transiently overexpressing hTRPA1)) EUB0000308b TRPA1; type: cell-based; set-up: mode of action Antagonist, recommended concentration 1 uM
CREB-binding protein = CREB-binding protein (Homo sapiens, UniProt Q92793); experiment: Affinity On-target Cellular interaction (NanoBRET assay (HEK293T cells)) EUB0000195c CREBBP; set-up: mode of action Inhibitor, recommended concentration 1 uM
Chain of CREB-binding protein (Q92793 whole entry): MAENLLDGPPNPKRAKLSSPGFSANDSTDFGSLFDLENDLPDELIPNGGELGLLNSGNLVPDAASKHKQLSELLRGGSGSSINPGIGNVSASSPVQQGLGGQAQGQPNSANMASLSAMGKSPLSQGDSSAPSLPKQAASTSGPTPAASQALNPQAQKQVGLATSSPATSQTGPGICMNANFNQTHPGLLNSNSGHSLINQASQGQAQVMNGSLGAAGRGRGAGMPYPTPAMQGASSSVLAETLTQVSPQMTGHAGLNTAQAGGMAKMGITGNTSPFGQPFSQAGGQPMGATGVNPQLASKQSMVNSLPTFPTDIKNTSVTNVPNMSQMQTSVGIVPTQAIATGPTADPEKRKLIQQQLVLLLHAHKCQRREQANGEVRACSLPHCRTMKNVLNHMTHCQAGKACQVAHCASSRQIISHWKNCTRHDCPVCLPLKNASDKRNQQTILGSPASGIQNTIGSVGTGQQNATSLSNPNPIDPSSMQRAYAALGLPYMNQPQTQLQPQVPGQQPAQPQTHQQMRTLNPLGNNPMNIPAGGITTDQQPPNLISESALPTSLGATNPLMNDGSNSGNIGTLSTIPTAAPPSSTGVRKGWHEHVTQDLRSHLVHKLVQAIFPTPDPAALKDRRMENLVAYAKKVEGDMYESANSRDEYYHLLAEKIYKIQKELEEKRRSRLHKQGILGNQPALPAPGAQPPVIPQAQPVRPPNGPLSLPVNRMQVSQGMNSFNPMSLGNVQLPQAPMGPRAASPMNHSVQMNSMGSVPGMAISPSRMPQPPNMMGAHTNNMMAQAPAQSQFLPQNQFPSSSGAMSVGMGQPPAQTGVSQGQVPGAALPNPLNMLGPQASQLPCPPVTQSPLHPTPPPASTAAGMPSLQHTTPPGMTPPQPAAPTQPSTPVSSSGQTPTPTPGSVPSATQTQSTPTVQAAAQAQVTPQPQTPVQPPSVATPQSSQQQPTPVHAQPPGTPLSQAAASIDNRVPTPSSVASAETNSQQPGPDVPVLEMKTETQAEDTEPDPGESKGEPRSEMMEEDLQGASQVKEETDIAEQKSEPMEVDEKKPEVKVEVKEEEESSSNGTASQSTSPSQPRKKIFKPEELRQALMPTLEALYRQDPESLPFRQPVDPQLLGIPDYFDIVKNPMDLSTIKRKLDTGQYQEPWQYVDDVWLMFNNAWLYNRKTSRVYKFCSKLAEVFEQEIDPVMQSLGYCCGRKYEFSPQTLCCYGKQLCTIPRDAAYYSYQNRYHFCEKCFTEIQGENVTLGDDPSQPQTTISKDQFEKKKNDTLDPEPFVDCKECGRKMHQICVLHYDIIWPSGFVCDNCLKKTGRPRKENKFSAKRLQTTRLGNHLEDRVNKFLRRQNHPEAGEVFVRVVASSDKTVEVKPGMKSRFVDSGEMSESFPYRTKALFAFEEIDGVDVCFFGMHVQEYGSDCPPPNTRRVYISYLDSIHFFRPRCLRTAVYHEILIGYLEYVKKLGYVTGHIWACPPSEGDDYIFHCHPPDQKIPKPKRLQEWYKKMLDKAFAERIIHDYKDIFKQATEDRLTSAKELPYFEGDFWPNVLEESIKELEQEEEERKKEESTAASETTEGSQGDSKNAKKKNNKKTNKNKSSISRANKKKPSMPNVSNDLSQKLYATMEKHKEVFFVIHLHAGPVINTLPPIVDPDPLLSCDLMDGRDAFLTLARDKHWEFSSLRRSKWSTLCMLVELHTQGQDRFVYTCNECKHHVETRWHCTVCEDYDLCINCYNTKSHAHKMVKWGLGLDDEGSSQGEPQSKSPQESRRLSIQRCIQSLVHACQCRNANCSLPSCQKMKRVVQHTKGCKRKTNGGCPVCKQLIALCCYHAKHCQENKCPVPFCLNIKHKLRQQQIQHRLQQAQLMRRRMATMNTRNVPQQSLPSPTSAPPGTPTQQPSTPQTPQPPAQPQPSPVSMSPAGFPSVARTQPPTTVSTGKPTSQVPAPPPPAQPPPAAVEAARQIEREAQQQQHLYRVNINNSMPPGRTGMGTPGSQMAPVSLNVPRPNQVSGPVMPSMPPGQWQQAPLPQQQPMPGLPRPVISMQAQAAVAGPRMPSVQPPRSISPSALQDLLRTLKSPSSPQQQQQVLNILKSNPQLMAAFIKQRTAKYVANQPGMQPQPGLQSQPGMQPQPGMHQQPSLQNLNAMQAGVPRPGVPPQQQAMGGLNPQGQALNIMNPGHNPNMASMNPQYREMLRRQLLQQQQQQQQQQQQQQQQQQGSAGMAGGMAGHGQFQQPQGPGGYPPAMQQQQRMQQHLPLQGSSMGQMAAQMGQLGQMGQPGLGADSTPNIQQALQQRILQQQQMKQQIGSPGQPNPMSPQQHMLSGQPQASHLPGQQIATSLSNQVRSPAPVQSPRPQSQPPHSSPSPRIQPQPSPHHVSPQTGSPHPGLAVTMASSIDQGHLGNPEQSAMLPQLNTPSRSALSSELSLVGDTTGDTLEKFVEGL

[7] = target: Chromatin remodeling regulator CECR2 (Homo sapiens, UniProt Q9BXF3); experiment: Affinity On-target Cellular interaction (NanoBRET assay (dose-dependent displacement from histone H3.3 in HEK293T cells)) EUB0000201c CECR2; type: cell-based; set-up: mode of action Inhibitor, recommended concentration 1 uM
[8] = target: Discoidin domain-containing receptor 2 (Homo sapiens, UniProt Q16832); experiment: Affinity On-target Cellular interaction (NanoBRET assay (HEK293T cells)) EUB0000156b DDR2; set-up: mode of action Negative control for DDR-TRK-1 (D2202-1), recommended concentration 1 uM
[9] = target: BDNF/NT-3 growth factors receptor (Homo sapiens, UniProt Q16620); experiment: Affinity On-target Cellular interaction (NanoBRET assay (HEK293T cells)) EUB0000156b NTRK2; set-up: mode of action Negative control for DDR-TRK-1 (D2202-1), recommended concentration 1 uM
Chain of BDNF/NT-3 growth factors receptor (Q16620 whole entry): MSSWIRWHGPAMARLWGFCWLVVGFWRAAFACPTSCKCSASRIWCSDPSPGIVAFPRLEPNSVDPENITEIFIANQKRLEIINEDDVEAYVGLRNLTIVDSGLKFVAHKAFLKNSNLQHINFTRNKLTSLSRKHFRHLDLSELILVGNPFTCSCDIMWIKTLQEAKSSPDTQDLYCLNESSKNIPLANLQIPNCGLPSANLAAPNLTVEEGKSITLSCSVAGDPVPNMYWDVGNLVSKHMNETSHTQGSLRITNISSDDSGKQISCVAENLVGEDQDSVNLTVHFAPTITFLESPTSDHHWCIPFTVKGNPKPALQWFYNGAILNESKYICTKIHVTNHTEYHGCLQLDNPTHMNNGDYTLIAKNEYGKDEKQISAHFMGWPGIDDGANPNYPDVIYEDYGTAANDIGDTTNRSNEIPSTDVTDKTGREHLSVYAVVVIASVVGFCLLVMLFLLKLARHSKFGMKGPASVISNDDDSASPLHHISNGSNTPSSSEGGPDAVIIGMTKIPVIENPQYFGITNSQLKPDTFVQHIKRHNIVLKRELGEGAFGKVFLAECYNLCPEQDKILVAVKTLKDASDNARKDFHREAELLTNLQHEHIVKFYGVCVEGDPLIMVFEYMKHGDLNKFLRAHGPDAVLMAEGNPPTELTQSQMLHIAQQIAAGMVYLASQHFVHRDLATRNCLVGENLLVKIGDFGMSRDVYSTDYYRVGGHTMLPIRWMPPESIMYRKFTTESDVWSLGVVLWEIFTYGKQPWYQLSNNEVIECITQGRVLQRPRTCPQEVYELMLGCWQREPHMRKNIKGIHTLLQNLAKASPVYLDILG

[10] = target: High affinity nerve growth factor receptor (Homo sapiens, UniProt P04629); experiment: Affinity On-target Cellular interaction (NanoBRET assay (HEK293T cells)) EUB0000156b NTRK1; set-up: mode of action Negative control for DDR-TRK-1 (D2202-1), recommended concentration 1 uM
[11] = target: Epithelial discoidin domain-containing receptor 1 (Homo sapiens, UniProt Q08345); experiment: Affinity On-target Cellular interaction (NanoBRET assay (HEK293T cells)) EUB0000156b DDR1; set-up: mode of action Negative control for DDR-TRK-1 (D2202-1), recommended concentration 1 uM
[12] = target: Histone acetyltransferase KAT2B (Homo sapiens, UniProt Q92831); experiment: Affinity On-target Cellular interaction (Competing pull-down assay (full-length PCAF from cell lysates using immobilized L-Moses)) EUB0000218c KAT2B; set-up: mode of action Inhibitor, recommended concentration 1 uM
Chain of Histone acetyltransferase KAT2B (Q92831 whole entry): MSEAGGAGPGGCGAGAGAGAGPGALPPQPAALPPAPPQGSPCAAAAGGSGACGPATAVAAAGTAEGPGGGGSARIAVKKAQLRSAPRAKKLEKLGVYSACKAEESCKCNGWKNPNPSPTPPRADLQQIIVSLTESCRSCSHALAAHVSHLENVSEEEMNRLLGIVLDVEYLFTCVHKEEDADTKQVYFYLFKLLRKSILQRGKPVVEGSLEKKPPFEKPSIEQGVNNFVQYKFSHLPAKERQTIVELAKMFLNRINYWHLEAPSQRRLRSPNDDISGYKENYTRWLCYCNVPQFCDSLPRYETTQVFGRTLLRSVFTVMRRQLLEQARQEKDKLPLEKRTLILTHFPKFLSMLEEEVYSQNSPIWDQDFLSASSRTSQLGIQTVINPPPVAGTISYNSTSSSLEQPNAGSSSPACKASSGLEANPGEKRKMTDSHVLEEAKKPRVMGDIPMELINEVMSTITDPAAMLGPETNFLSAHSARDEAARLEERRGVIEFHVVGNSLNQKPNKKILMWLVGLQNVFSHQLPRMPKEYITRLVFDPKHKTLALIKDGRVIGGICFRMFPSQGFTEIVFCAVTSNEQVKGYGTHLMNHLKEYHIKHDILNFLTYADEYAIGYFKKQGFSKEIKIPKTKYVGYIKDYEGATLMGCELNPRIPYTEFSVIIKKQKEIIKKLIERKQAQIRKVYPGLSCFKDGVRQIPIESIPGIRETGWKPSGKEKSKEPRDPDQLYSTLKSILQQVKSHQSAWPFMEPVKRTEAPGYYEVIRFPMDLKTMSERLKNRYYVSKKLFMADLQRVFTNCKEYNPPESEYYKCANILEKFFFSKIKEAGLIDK

[13] = target: Histone acetyltransferase KAT2A (Homo sapiens, UniProt Q92830); experiment: Affinity On-target Cellular interaction (Competing pull-down assay (full-length GCN5 from cell lysates using immobilized L-Moses)) EUB0000218c KAT2A; set-up: mode of action Inhibitor, recommended concentration 1 uM
[14] = Affinity On-target Cellular interaction (Binding assay in HEK293 cells) EUB0000337aCl P2RY14
[15] = target: RAC-beta serine/threonine-protein kinase (Homo sapiens, UniProt P31751); experiment: Affinity On-target Cellular interaction (NanoBRET assay (HEK293T cells)) EUB0000721a AKT2
[16] = target: RAC-gamma serine/threonine-protein kinase (Homo sapiens, UniProt Q9Y243); experiment: Affinity On-target Cellular interaction (NanoBRET assay (HEK293T cells)) EUB0000721a AKT3
[17] = target: RAC-alpha serine/threonine-protein kinase (Homo sapiens, UniProt P31749); experiment: Affinity On-target Cellular interaction (NanoBRET assay (HEK293T cells)) EUB0000721a AKT1
[18] = target: T1, Nucleosome-remodeling factor subunit BPTF (Homo sapiens, UniProt Q12830); experiment: Affinity On-target Cellular interaction (NanoBRET assay (HEK293T cells)) EUB0000254b BPTF; set-up: mode of action Negative control for NVS-BPTF-1, recommended concentration 1 uM
[19] = target: T1, Nucleosome-remodeling factor subunit BPTF
[20] = target: Histone-lysine N-methyltransferase SETD7 (Homo sapiens, UniProt Q8WTS6); experiment: Affinity On-target Cellular interaction (Immunoblot (increase in nuclear YAP levels by treatment of MEFs (from Setd7+/+ mice) with 10 µM PFI-2)) EUB0000196bCl SETD7; set-up: mode of action Inhibitor, recommended concentration 1 uM
Chain of Histone-lysine N-methyltransferase SETD7 (Q8WTS6 whole entry): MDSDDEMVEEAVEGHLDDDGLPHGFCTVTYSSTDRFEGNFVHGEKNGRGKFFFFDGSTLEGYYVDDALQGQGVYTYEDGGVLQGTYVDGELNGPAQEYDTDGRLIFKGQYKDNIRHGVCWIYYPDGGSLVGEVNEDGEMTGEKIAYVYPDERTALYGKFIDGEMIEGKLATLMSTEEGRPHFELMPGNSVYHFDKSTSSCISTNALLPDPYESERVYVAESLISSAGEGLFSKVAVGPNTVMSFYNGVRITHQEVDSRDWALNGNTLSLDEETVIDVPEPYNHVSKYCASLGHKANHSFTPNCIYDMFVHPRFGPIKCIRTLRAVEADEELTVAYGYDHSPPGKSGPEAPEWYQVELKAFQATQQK

[21] = target: Tyrosine-protein kinase JAK3 (Homo sapiens, UniProt P52333); experiment: Affinity On-target Cellular interaction (NanoBRET assay (HEK293T cells)) EUB0000007b JAK3; set-up: mode of action Negative control for FM-381, recommended concentration 100 nM
[22] = target: P2Y purinoceptor 14 (Homo sapiens) (UniProt Q15391); conditions: Affinity On-target Cellular Source Knowledge https://pubs.acs.org/doi/10.1021/jm200400m,https://pubs.acs.org/doi/10.1021/ml300280g, https://www.sgc-ffm.uni-frankfurt.de/#!specificprobeoverview/MSD-M1PAM

Chain of Dual specificity protein kinase CLK1 (P49759 whole entry): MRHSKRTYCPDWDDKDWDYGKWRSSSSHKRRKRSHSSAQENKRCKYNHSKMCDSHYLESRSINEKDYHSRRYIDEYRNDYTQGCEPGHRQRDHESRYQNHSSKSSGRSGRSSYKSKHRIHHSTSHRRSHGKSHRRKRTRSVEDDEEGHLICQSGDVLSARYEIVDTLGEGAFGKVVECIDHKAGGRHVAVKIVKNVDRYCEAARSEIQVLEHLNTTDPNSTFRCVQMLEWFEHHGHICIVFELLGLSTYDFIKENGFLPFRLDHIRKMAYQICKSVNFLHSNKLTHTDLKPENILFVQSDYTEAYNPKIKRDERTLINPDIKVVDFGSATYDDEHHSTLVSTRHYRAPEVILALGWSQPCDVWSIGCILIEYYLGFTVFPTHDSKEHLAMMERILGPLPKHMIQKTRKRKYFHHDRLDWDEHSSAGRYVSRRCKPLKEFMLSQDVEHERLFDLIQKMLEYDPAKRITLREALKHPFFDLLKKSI

With COc1cc(Nc2nccc(-c3cnn4nc(OC)ccc34)n2)cc(C(F)(F)F)c1 the IC50 [1] was 165 nM.
Work on CC(C)N(CCCNC(=O)Nc1ccc(C(C)(C)C)cc1)C[C@H]1O[C@@H](n2cc(Br)c3c(N)ncnc32)[C@H](O)[C@@H]1O yielded an IC50 [2] of 2.6 nM.
For CNc1nc(Nc2cnn([C@H]3CCN(C4COC4)C[C@@H]3F)c2Cl)ncc1C(F)(F)F, the IC50 [3] was 19 nM.
With CCCOc1ccn2c(C(C)=O)cc(-c3cccc(OC)c3)c2c1 the Kd [4] was > 10000 nM and the Kd [5] was > 10000 nM.
Compound Clc1cccc(-c2nnnn2Cc2cccnc2)c1Cl has an IC50 [6] of 51 nM.
For CCC(=O)N1CCOc2c(cc(-c3ccc(OC)c(OC)c3)cc2OC[C@H]2CCCN(C)C2)C1, the IC50 (CREB-binding protein) was 600 nM.
For CCCS(=O)(=O)c1nc(NC2CC2)cc(-c2ccc3c(ccn3C3CC(C)(C)NC(C)(C)C3)c2)n1, the IC50 [7] was 255 nM.
CN1CCN(Cc2cc(NC(=O)c3ccc4c(c3)CN(c3ccccc3)CC4)cc(C(F)(F)F)c2)CC1 gave an IC50 [8] of 8720 nM, an IC50 [9] of 6800 nM and an IC50 [10] of 19300 nM. The IC50 [11] was 26600 nM.
Compound Cc1nnc2c3ccccc3c(N[C@@H](C)[C@H](c3ccccc3)N(C)C)nn12 has an IC50 [12] of 660 nM and an IC50 [13] of 220 nM.
Compound Cc1c(C(=O)O)cc(-c2ccc(C3CCNCC3)cc2)c2ccc(-c3ccc(C(F)(F)F)cc3)cc12 has a Ki [14] of 8610 nM.
Work on C=CC(=O)Nc1ccc2[nH]c(=O)n(C3CCN(C(=O)c4ccc(-c5nc6cc[nH]c(=O)c6cc5-c5ccccc5)cc4)CC3)c2c1 yielded an IC50 [15] of 8300 nM, an IC50 [16] of 18000 nM and an IC50 [17] of 1900 nM.
For Cc1c(Nc2ccc(S(=O)(=O)N3CCN(C)CC3)cc2F)nc2ccc(Nc3cnn(C4CC4)c3)cn2c1=O, the IC50 [18] was > 10000 nM.
Compound Cc1c(Nc2ccc(S(=O)(=O)N3CCN(C)CC3)cc2F)nc2ccc(-c3cnn(C4CC4)c3)cn2c1=O has an IC50 [19] of 16 nM.
With O=C([C@@H](Cc1cccc(C(F)(F)F)c1)NS(=O)(=O)c1cc(F)c2c(c1)CCNC2)N1CCCC1 the EC50 [20] was < 10000 nM.
For CN(C)C(=O)/C(C#N)=C/c1ccc(-c2nc3cnc4c(ccn4C)c3n2C2CCCCC2)o1, the IC50 [21] was > 10000 nM.
For O=C(O)c1cc(-c2ccc(C3CCNCC3)cc2)c2ccc(-c3ccc(C(F)(F)F)cc3)cc2c1, the Potentiation inflection point [22] was > 10 µM.
